Values after ≈ are worked out from the molar mass of the structure shown. Active and inactive are the calls of the source. The calls are words filed in the database; no cut-off is given here.
Key:
[1] = system: Mycobacterium tuberculosis; experiment: Antitubercular activity against Mycobacterium tuberculosis H37Rv at 1 ug/ml after 4 weeks by Lowenstein-Jensen medium method; format: functional, organism-based
[2] = system: Mycobacterium tuberculosis; experiment: Antitubercular activity against Mycobacterium tuberculosis H37Rv at 10 ug/ml after 4 weeks by Lowenstein-Jensen medium method; format: functional, organism-based
[3] = system: Pseudomonas aeruginosa; experiment: Antibacterial activity against Pseudomonas aeruginosa after 24 hrs by agar-diffusion technique; format: functional
[4] = system: Salmonella typhi; experiment: Antibacterial activity against Salmonella typhi at 10 mg/ml after 24 hrs by agar-diffusion technique; format: functional, Salmonella enterica subsp. enterica serovar Typhi; details: Salmonella enterica, read-out: IZ
[5] = system: Mycobacterium tuberculosis; experiment: Antitubercular activity against Mycobacterium tuberculosis H37Rv at 100 ug/ml after 4 weeks by Lowenstein-Jensen medium method; format: functional, organism-based
[6] = system: Candida albicans; experiment: Antifungal activity against Candida albicans after 7 days by disc diffusion technique; format: functional; details: 168 h
[7] = system: Pseudomonas aeruginosa; experiment: Antibacterial activity against Pseudomonas aeruginosa at 10 mg/ml after 24 hrs by agar-diffusion technique; format: functional; details: read-out: IZ
[8] = system: Aspergillus niger; experiment: Antifungal activity against Aspergillus niger after 7 days by disc diffusion technique; format: functional; details: 168 h
[9] = system: Klebsiella pneumoniae; experiment: Antibacterial activity against Klebsiella pneumoniae at 10 mg/ml after 24 hrs by agar-diffusion technique; format: functional; details: read-out: IZ
[10] = system: Aspergillus niger; experiment: Antifungal activity against Aspergillus niger at 10 mg/ml after 7 days by disc diffusion technique; format: functional; details: 168 h, read-out: IZ
[11] = system: Candida tropicalis; experiment: Antifungal activity against Candida tropicalis at 10 mg/ml after 7 days by disc diffusion technique; format: functional; details: 168 h, read-out: IZ
[12] = system: Escherichia coli; experiment: Antibacterial activity against Escherichia coli after 24 hrs by agar-diffusion technique; format: functional
[13] = system: Salmonella typhi; experiment: Antibacterial activity against Salmonella typhi after 24 hrs by agar-diffusion technique; format: functional, Salmonella enterica subsp. enterica serovar Typhi; details: Salmonella enterica
[14] = system: Escherichia coli; experiment: Antibacterial activity against Escherichia coli at 10 mg/ml after 24 hrs by agar-diffusion technique; format: functional; details: read-out: IZ
[15] = system: Candida tropicalis; experiment: Antifungal activity against Candida tropicalis after 7 days by disc diffusion technique; format: functional; details: 168 h
[16] = system: Aspergillus flavus; experiment: Antifungal activity against Aspergillus flavus at 10 mg/ml after 7 days by disc diffusion technique; format: functional; details: 168 h, read-out: IZ
[17] = system: Candida albicans; experiment: Antifungal activity against Candida albicans at 10 mg/ml after 7 days by disc diffusion technique; format: functional; details: 168 h, read-out: IZ
[18] = system: Aspergillus flavus; experiment: Antifungal activity against Aspergillus flavus after 7 days by disc diffusion technique; format: functional; details: 168 h
[19] = system: Klebsiella pneumoniae; experiment: Antibacterial activity against Klebsiella pneumoniae after 24 hrs by agar-diffusion technique; format: functional

Structure (SMILES) | Activity [1] | Activity [2] | MIC [3] [µg/mL] | zone of inhibition at 10000 µg/mL [4] [mm] | Activity [5] | MIC [6] [µg/mL] | zone of inhibition at 10000 µg/mL [7] [mm] | MIC [8] [µg/mL] | zone of inhibition at 10000 µg/mL [9] [mm] | zone of inhibition at 10000 µg/mL [10] [mm] | zone of inhibition at 10000 µg/mL [11] [mm] | MIC [12] [µg/mL] | MIC [13] [µg/mL] | zone of inhibition at 10000 µg/mL [14] [mm] | MIC [15] [µg/mL] | zone of inhibition at 10000 µg/mL [16] [mm] | zone of inhibition at 10000 µg/mL [17] [mm] | MIC [18] [µg/mL] | MIC [19] [µg/mL]
N#Cc1c(-c2ccccc2)cc(-c2ccc[nH]2)c([N+](=O)[O-])c1N | Active | Active | 20 (≈ 65.7 µM) | 24 | Active | 20 (≈ 65.7 µM) | 16 | 20 (≈ 65.7 µM) | 18 | 20 | 12 | 20 (≈ 65.7 µM) | 20 (≈ 65.7 µM) | 14 | 20 (≈ 65.7 µM) | 16 | 18 | 20 (≈ 65.7 µM) | 20 (≈ 65.7 µM)
CCOC(=O)c1c(-c2ccc(OC)cc2)cc(-c2ccc[nH]2)c([N+](=O)[O-])c1N | Active | Active | 20 (≈ 52.4 µM) | 14 | Active | 20 (≈ 52.4 µM) | 12 | 20 (≈ 52.4 µM) | 16 | 10 | 10 | 20 (≈ 52.4 µM) | 20 (≈ 52.4 µM) | 10 | 20 (≈ 52.4 µM) | 12 | 9 | 20 (≈ 52.4 µM) | 20 (≈ 52.4 µM)
N#Cc1c(-c2ccccc2)cc(-c2ccco2)c([N+](=O)[O-])c1N | Active | Active | 20 (≈ 65.5 µM) | 16 | Active | 20 (≈ 65.5 µM) | 14 | 20 (≈ 65.5 µM) | 12 | 8 | 8 | 20 (≈ 65.5 µM) | 20 (≈ 65.5 µM) | 17 | 20 (≈ 65.5 µM) | 14 | 10 | 20 (≈ 65.5 µM) | 20 (≈ 65.5 µM)
CCOC(=O)c1c(-c2ccc(OC)cc2)cc(-c2ccco2)c([N+](=O)[O-])c1N | Active | Active | 20 (≈ 52.3 µM) | 7 | Active | 20 (≈ 52.3 µM) | 8 | 20 (≈ 52.3 µM) | 9 | 10 | 8 | 20 (≈ 52.3 µM) | 20 (≈ 52.3 µM) | 10 | 20 (≈ 52.3 µM) | 9 | 7 | 20 (≈ 52.3 µM) | 20 (≈ 52.3 µM)
O=C(O)c1cn(C2CC2)c2cc(N3CCNCC3)c(F)cc2c1=O [CIPROFLOXACIN] | – | – | – | 24 | – | – | 23 | – | 22 | – | – | – | – | – | – | – | – | – | –
NC(=O)c1cnccn1 | Active | Active | – | – | Active | – | – | – | – | – | – | – | – | – | – | – | – | – | –
Clc1ccccc1C(c1ccccc1)(c1ccccc1)n1ccnc1 [CLOTRIMAZOLE] | – | – | – | – | – | – | – | – | – | 23 | 21 | – | – | – | – | 19 | 20 | – | –
CCOC(=O)c1c(-c2ccc(OC)cc2)cc(-c2cccs2)c([N+](=O)[O-])c1N | Active | Active | 20 (≈ 50.2 µM) | 16 | Active | 20 (≈ 50.2 µM) | 18 | 20 (≈ 50.2 µM) | 20 | 18 | 42 | 20 (≈ 50.2 µM) | 20 (≈ 50.2 µM) | 14 | 20 (≈ 50.2 µM) | 14 | 16 | 20 (≈ 50.2 µM) | 20 (≈ 50.2 µM)
N#Cc1c(-c2ccccc2)cc(-c2cccs2)c([N+](=O)[O-])c1N | Active | Active | 20 (≈ 62.2 µM) | 9 | Active | 20 (≈ 62.2 µM) | 10 | 20 (≈ 62.2 µM) | 8 | 15 | 21 | 20 (≈ 62.2 µM) | 20 (≈ 62.2 µM) | 12 | 20 (≈ 62.2 µM) | 12 | 24 | 20 (≈ 62.2 µM) | 20 (≈ 62.2 µM)

Reference: ChEMBL document CHEMBL2424519, “DABCO-promoted one-pot synthesis of heteroaryl-substituted benzenes and their biological evaluation” (2013)
